Measurements taken from patent US20160183526A1, “FUNGICIDAL COMPOSITIONS” (Dow AgroSciences LLC, priority 2014, published 2016).

Columns and labels:
[1] = estimated from a survey of the literature; miscible means totally soluble in water in all amounts; cited from earlier work
[2] = Solubility of Compound A and prothioconazole in benzyl acetate/AMD810/cyclohexanone blends at 10° C.; format: physicochemical; details: one week
Procedure: A total of 20 g of each solvent blend was prepared per sample. For example, one of the blends (Blend 4) was prepared by combining cyclohexanone 0.2 (4 g), benzyl acetate 0.2 (4 g) and AMD810 0.6 (12 g). To Blend 4 were added amounts of Compound A and prothioconazole technical active ingredients to achieve saturation concentrations of each. The samples were then stored at 10° C. for one week and then were analysed for soluble active ingredient content.

[3] = Approximate relative solubility of active ingredients in organic solvents at ambient temperature; format: physicochemical
[4] = Solubility of a mixture of Compound A and prothioconazole in benzyl acetate/AMD810 blends at 10° C. (HPLC); format: physicochemical; details: both actives saturated
Procedure: A study of the Compound A and prothioconazole solubility in blends of benzyl acetate/AMD810 was conducted. To each solvent blend both actives were added until each was saturated and the resulting mixtures were then stored at 10° C. until equilibrium was obtained. Aliquots of the supernatant layer were taken from each sample, filtered (0.45 μm mesh) and analyzed by HPLC to determine the solution concentration of each active in the blends.

CC(=O)OCc1ccccc1 [Benzyl acetate]
Solubility of Solvent in Water [1]: 1000 to 3100 µg/mL

CCCCOC(=O)C(C)O (stereo not shown) [Butyl lactate]
Solubility of Solvent in Water [1]: 42000 µg/mL

O=C1CCCCC1 [Cyclohexanone]
Solubility of Solvent in Water [1]: 8600 to 25000 µg/mL

CCCCOC(=O)OCCCC [Di-n-butyl carbonate]
Solubility of Solvent in Water [1]: 820 µg/mL

CCOCCOCCO [Diethylene glycol monoethyl ether]
Solubility of Solvent in Water [1]: Miscible

CCOCCOCCOC(C)=O [Ethyl Diglycol Acetate]
Solubility of Solvent in Water [1]: Miscible

CC(C)OC(=O)c1ccccc1 [Isopropyl benzoate]
Solubility of Solvent in Water [1]: 640 µg/mL

CCCCCCCC/C=C\CCCCCCCC(=O)OC [Methyl oleate]
Solubility of Solvent in Water [1]: 1.1 µg/mL

COC(=O)c1ccccc1O [Methyl salicylate]
Solubility of Solvent in Water [1]: <5000 µg/mL

COC(=O)C(C)CCC(=O)N(C)C (stereo not shown) [Methyl-5-(Dimethylamino)-2-Methyl-5-Oxopentanoate]
Solubility of Solvent in Water [1]: 79000 µg/mL

COC(=O)CCC(C)C(=O)OC (stereo not shown) [Pentanedioic acid, 2-methyl-1,5-dimethyl ester]
Solubility of Solvent in Water [1]: 25000 µg/mL

CC1COC(=O)O1 (stereo not shown) [Propylene carbonate]
Solubility of Solvent in Water [1]: 17500 µg/mL

OC(Cc1ccccc1Cl)(Cn1nc[nH]c1=S)C1(Cl)CC1 (stereo not shown) [Prothioconazole, prothioconazole]
Prothioconazole Solubility @ 10° C. ([2]; Blend 1: cyclohexanone 0/benzyl acetate 0/AMD810 1 (weight fraction)): 34.3 % w/w
Prothioconazole Solubility @ 10° C. ([2]; Blend 2: cyclohexanone 0/benzyl acetate 0.2/AMD810 0.8 (weight fraction)): 32.3 % w/w
Prothioconazole Solubility @ 10° C. ([2]; Blend 3: cyclohexanone 0.2/benzyl acetate 0/AMD810 0.8 (weight fraction)): 33.9 % w/w
Prothioconazole Solubility @ 10° C. ([2]; Blend 4: cyclohexanone 0.2/benzyl acetate 0.2/AMD810 0.6 (weight fraction)): 32.9 % w/w
Prothioconazole Solubility @ 10° C. ([2]; Blend 5: cyclohexanone 0/benzyl acetate 0.4/AMD810 0.6 (weight fraction)): 33.1 % w/w
Prothioconazole Solubility @ 10° C. ([2]; Blend 6: cyclohexanone 0.2/benzyl acetate 0.4/AMD810 0.4 (weight fraction)): 32.1 % w/w
Prothioconazole Solubility @ 10° C. ([2]; Blend 7: cyclohexanone 0/benzyl acetate 0.6/AMD810 0.4 (weight fraction)): 32.1 % w/w
Prothioconazole Solubility @ 10° C. ([2]; Blend 8: cyclohexanone 0/benzyl acetate 0.8/AMD810 0.2 (weight fraction)): 26.6 % w/w
Prothioconazole Solubility @ 10° C. ([2]; Blend 10: cyclohexanone 0.2/benzyl acetate 0.6/AMD810 0.2 (weight fraction)): 29.9 % w/w
Prothioconazole Solubility @ 10° C. ([2]; Blend 11: cyclohexanone 0/benzyl acetate 1/AMD810 0 (weight fraction)): 16.2 % w/w
Prothioconazole Solubility @ 10° C. ([2]; Blend 12: cyclohexanone 0.2/benzyl acetate 0.8/AMD810 0 (weight fraction)): 18.4 % w/w
Relative Solubility of Prothioconazole ([3]; in 2-ethylhexanol): Very Low (<10)
Relative Solubility of Prothioconazole ([3]; in 2-ethylhexyl benzoate): Very Low (<10)
Relative Solubility of Prothioconazole ([3]; in 2-ethylhexyl lactate): Medium (>20 to 30)
Relative Solubility of Prothioconazole ([3]; in 2-heptanone): Low (10 to 20)
Relative Solubility of Prothioconazole ([3]; in Alkyl naphthalene mixture): Very Low (<10)
Relative Solubility of Prothioconazole ([3]; in Benzyl acetate): Low (10 to 20)
Relative Solubility of Prothioconazole ([3]; in Benzyl alcohol): Medium (>20 to 30)
Relative Solubility of Prothioconazole ([3]; in Butyl benzoate): Low (10 to 20)
Relative Solubility of Prothioconazole ([3]; in Butyl lactate): Low (10 to 20)
Relative Solubility of Prothioconazole ([3]; in Butylene carbonate): Very Low (<10)
Relative Solubility of Prothioconazole ([3]; in Cyclohexanone): High (>30)
Relative Solubility of Prothioconazole ([3]; in Di-n-butyl carbonate): Very Low (<10)
Relative Solubility of Prothioconazole ([3]; in Diethylene glycol monoethyl ether): High (>30)
Relative Solubility of Prothioconazole ([3]; in Ethyl Diglycol Acetate): Very Low (<10)
Relative Solubility of Prothioconazole ([3]; in Isoparaffin): Very Low (<10)
Relative Solubility of Prothioconazole ([3]; in Isopropyl benzoate): Very Low (<10)
Relative Solubility of Prothioconazole ([3]; in Methyl oleate): Very Low (<10)
Relative Solubility of Prothioconazole ([3]; in Methyl salicylate): Very Low (<10)
Relative Solubility of Prothioconazole ([3]; in Methyl-5-(Dimethylamino)-2-Methyl-5-Oxopentanoate): High (>30)
Relative Solubility of Prothioconazole ([3]; in N,N dimethyl fatty acid amides): High (>30)
Relative Solubility of Prothioconazole ([3]; in N-formyl morpholine and propylene carbonate): Medium (>20 to 30)
Relative Solubility of Prothioconazole ([3]; in Pentanedioic acid, 2-methyl-1, 5-dimethyl ester): Low (10 to 20)
Relative Solubility of Prothioconazole ([3]; in Polyethylene glycol): Medium (>20 to 30)
Relative Solubility of Prothioconazole ([3]; in Polypropylene glycol): Low (10 to 20)
Relative Solubility of Prothioconazole ([3]; in Propylene carbonate): Very Low (<10)
Relative Solubility of Prothioconazole ([3]; in Soybean oil): Very Low (<10)
Relative Solubility of Prothioconazole ([3]; in Sulfolane): Low (10 to 20)
Relative Solubility of Prothioconazole ([3]; in Tributoxyethyl phosphate): High (>30)
Relative Solubility of Prothioconazole ([3]; in dimethyl esters of adipic, glutaric and succinic acids): Low (10 to 20)
Prothioconazole Solubility at 10° C. ([4]; benzyl acetate 0 wt % in blend with AMD810): 31.3 % w/w
Prothioconazole Solubility at 10° C. ([4]; benzyl acetate 20 wt % in blend with AMD810): 32.3 % w/w
Prothioconazole Solubility at 10° C. ([4]; benzyl acetate 40 wt % in blend with AMD810): 33.1 % w/w
Prothioconazole Solubility at 10° C. ([4]; benzyl acetate 60 wt % in blend with AMD810): 32.1 % w/w
Prothioconazole Solubility at 10° C. ([4]; benzyl acetate 80 wt % in blend with AMD810): 26.6 % w/w
Prothioconazole Solubility at 10° C. ([4]; benzyl acetate 100 wt % in blend with AMD810): 16.2 % w/w
